Experimental data: ChEMBL document CHEMBL1201862, “PubChem BioAssay data set” (2004)
Values belong to the molecule of their own block, whether it stands above or below them. The source made the active and inactive calls.

What was measured:
X-box-binding protein 1 = X-box-binding protein 1 (Homo sapiens, UniProt P17861); assay type: functional, Cricetulus griseus;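 note: confirmatory dose-response counter-screen serving a CHOP assay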
[1] = HepG2 cell cytotoxicity, dose response, cytotoxicity control for Shn3 inhibitor project, CellTiter-Glo, cherry-picked (AID 624134); assay type: functional, cell-based
HEK293 [2] = test: cells; settings: Homo sapiens
[3] = HEK293T cell cytotoxicity, dose response, cytotoxicity control for HIV Vif inhibitor project, cherry-picks (AID 652208); assay type: functional, cell-based
[4] = Shn3 3'UTR reporter inhibitors, dose response, cell-based, Clone20 osteoblasts, firefly luciferase, cherry-picked (AID 624132); assay type: functional;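 note: firefly luciferase luminescence from reporter carrying the Shn3 3'UTR in osteoblasts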
[5] = control 3'UTR Renilla luciferase suppression, dose response, counter-screen for Shn3 inhibitor project, cell-based, Clone20-Shn3RL, cherry-picked (AID 624133); assay type: functional
HEK293 [6] = test: cells; settings: Homo sapiens; remark: listed apart in the source
[7] = molecular target: T1, Heat shock factor protein 1 (Mus musculus, UniProt P38532); test: HSF1 potentiators in luciferase reporter cells, confirmation, cell-based, NIH3T3, luminescence, dose retest (AID 435004); assay type: functional;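 note: stress induced by proteasome inhibitor MG132 added 30 min after compound; luciferase reporter driven by HSF1 response element in NIH3T3 cells; actives raise luminescence as potentiators of the MG132 stress response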
T1 sequence (P38532 whole entry): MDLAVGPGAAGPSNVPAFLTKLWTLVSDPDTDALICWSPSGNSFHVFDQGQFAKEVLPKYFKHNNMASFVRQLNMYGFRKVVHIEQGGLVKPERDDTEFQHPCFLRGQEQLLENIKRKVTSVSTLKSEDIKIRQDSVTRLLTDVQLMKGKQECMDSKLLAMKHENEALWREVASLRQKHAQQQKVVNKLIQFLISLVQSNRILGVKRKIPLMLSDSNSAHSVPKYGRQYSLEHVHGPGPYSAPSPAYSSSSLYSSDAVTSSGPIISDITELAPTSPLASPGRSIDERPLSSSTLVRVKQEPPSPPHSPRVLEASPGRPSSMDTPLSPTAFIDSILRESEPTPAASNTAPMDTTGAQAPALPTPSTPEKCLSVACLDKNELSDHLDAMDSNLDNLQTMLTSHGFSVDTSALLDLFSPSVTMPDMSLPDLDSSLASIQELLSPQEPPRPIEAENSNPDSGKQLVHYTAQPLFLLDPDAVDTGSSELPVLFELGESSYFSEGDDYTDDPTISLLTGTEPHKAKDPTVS

cells [8] = assay type: functional, cell-based
BJ [9] = test: cytotoxicity toward Ras-transformed BJeLR fibroblasts, dose response, cell-based, alamar blue fluorescence, cherrypicked samples (AID 2631); assay type: functional; settings: Homo sapiens;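 note: confirmatory dose-response assay in RAS-dependent BJ fibroblasts engineered with TERT, LT and ST, with cytotoxicity read by fluorescence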
cells [10] = assay type: functional, cell-based; remark: listed apart in the source
[11] = molecular target: T2, Tyrosine-protein phosphatase non-receptor type 7 (Homo sapiens, UniProt P35236); test: inhibitors of human HePTP phosphatase, […], biochemical, absorbance, leukemia target (AID 521); assay type: functional
T2 sequence (P35236 whole entry): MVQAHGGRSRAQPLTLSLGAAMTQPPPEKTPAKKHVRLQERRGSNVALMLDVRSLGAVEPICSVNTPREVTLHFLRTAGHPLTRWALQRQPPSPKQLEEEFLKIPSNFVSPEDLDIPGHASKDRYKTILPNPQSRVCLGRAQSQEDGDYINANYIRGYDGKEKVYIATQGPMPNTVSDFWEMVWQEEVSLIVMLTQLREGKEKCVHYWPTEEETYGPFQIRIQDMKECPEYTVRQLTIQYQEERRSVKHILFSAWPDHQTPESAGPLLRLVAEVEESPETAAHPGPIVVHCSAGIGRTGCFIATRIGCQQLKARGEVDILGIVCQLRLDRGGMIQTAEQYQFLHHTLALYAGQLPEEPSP

[12] = molecular target: T3, Beta-2 adrenergic receptor (Homo sapiens, UniProt P07550); test: beta2AR agonists driving receptor internalization, dose response, cell-based, FAP fluorogen, flow cytometry, cherry pick 1 (AID 588763); assay type: functional
T3 sequence (P07550 whole entry): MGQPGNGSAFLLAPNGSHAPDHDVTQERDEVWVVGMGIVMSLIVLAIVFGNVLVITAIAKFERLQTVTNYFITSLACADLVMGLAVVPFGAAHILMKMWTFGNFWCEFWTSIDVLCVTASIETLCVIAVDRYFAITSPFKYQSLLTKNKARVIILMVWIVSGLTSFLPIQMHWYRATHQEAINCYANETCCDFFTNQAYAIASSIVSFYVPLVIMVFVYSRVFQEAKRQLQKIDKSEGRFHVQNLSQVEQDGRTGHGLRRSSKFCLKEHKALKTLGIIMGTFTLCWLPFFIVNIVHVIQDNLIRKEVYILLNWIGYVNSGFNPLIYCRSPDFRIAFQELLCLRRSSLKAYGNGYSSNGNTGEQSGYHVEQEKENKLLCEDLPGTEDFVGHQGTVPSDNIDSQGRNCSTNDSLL

[13] = molecular target: Tyrosine-protein phosphatase non-receptor type 5 (Homo sapiens, UniProt P54829); test: STEP phosphatase inhibitors, confirmation, biochemical, fluorescence intensity, uHTS hits (AID 602372); assay type: functional; settings: read-out: IC50_Mean
Sequence of Tyrosine-protein phosphatase non-receptor type 5 (P54829 whole entry): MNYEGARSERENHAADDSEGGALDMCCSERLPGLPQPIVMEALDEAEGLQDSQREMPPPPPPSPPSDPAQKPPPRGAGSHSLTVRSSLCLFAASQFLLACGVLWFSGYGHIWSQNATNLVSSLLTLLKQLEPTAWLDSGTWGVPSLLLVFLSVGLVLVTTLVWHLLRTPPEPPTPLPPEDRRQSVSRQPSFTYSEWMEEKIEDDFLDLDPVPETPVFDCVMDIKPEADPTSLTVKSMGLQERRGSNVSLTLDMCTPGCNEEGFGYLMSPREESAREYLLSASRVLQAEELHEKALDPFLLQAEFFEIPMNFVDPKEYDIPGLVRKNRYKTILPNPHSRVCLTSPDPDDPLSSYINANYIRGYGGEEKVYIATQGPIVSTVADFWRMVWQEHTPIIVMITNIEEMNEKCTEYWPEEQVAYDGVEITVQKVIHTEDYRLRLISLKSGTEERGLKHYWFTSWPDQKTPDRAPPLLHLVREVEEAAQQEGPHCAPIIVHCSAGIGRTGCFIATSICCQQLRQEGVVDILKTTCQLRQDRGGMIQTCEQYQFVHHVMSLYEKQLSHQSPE

[14] = molecular target: Dual specificity protein phosphatase 3 (Homo sapiens, UniProt P51452); test: VHR phosphatase inhibition, dose response, selectivity assay for STEP inhibitor project, biochemical (AID 602374); assay type: functional; settings: read-out: IC50_Mean
Sequence of Dual specificity protein phosphatase 3 (P51452 whole entry): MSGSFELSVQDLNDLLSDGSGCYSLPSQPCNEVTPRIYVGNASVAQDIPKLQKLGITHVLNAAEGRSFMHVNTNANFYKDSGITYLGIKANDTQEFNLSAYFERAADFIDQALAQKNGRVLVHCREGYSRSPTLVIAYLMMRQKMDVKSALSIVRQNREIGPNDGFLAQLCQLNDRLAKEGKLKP

[15] = molecular target: Protein-tyrosine kinase 2-beta (Homo sapiens, UniProt Q14289);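 note: potency of inhibitors of PYK2 kinase phosphorylation of poly-GT substrate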
Cytochrome P450 2C9 = Cytochrome P450 2C9 (Homo sapiens, UniProt P11712)
[16] = molecular target: Tyrosine-protein phosphatase non-receptor type 11 (Homo sapiens, UniProt Q06124); test: SHP2 phosphatase inhibition, dose response, selectivity assay for STEP inhibitor project, biochemical (AID 602367); assay type: functional; settings: read-out: IC50_Mean
[17] = molecular target: T3, Beta-2 adrenergic receptor; test: Dose response for HTS for Beta-2AR agonists via FAP method from Powderset1.; assay type: functional
[18] = molecular target: ADP-ribosylation factor GTPase-activating protein 1 (Rattus norvegicus, UniProt Q62848); test: Fluorescence polarization-based biochemical high throughput dose response screening assay to identify inhibitors of ADP-ribosylation factor GTPase activating protein 1 (ARFGAP1).; assay type: functional
Sequence of ADP-ribosylation factor GTPase-activating protein 1 (Q62848 whole entry): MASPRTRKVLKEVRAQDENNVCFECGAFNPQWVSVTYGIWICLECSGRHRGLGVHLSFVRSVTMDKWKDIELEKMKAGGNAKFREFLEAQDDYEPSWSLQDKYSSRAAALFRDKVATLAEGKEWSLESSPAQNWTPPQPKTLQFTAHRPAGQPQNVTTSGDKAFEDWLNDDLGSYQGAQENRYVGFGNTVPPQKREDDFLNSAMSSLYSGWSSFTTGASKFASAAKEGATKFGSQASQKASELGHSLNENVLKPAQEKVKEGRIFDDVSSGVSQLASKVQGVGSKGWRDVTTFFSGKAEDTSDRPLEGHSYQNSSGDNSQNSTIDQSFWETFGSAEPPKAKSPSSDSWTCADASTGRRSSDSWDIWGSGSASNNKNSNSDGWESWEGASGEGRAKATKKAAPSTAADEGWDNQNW

[19] = StAR promoter reporter inhibition counter-screen, dose response, counter-screen for LRH-1 inverse agonist project, cell-based, luminescence, luciferase reporter (AID 651969); assay type: functional
[20] = molecular target: Nuclear receptor subfamily 5 group A member 2 (Homo sapiens, UniProt O00482); assay type: functional, cell-based;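 note: HEK293T cells transfected with LRH-1 and a StAR promoter luciferase reporter; potency for inhibitors that lower LRH-1 driven reporter light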
Sequence of Nuclear receptor subfamily 5 group A member 2 (O00482 whole entry): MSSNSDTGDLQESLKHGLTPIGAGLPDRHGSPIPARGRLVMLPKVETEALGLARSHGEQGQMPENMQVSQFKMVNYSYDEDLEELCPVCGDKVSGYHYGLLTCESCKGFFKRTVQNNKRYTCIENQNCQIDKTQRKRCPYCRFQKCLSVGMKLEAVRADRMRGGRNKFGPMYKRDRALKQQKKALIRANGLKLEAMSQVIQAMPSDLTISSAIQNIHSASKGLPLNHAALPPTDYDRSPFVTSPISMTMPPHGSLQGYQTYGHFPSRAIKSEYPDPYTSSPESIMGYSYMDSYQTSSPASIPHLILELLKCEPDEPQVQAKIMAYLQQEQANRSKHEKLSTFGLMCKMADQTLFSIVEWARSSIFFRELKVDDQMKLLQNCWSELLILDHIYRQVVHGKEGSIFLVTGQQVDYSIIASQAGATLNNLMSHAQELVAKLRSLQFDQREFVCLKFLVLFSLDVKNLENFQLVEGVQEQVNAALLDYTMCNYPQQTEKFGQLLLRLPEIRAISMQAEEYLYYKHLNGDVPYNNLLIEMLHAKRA

Steroidogenic factor 1 = Steroidogenic factor 1 (Homo sapiens, UniProt Q13285); test: Counterscreen for inverse agonists of the liver receptor homolog-1 (LRH-1; NR5A2): Luminescence-based cell-based high throughput dose response assay to identify inverse agonists of the Steroidogenic Factor 1 Nuclear Receptor (SF1; NR5A1).; assay type: functional
Sequence of Steroidogenic factor 1 (Q13285 whole entry): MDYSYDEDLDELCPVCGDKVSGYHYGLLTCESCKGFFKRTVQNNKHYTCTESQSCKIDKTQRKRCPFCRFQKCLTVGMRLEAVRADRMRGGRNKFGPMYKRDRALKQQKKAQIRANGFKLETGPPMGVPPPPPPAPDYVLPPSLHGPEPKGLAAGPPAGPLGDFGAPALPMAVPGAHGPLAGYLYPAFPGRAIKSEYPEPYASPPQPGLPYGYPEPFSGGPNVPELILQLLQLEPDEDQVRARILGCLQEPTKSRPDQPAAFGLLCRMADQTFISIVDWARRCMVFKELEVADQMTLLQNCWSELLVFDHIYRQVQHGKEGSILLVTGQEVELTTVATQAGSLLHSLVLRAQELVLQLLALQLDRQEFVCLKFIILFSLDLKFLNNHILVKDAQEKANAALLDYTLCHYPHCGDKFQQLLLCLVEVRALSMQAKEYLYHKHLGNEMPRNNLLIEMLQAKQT

[21] = molecular target: Nuclear receptor subfamily 0 group B member 1 (Homo sapiens, UniProt P51843); assay type: functional, cell-based;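 note: HEK293T cells transfected with SF-1 and DAX-1 plus StAR promoter luciferase reporter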
Sequence of Nuclear receptor subfamily 0 group B member 1 (P51843 whole entry): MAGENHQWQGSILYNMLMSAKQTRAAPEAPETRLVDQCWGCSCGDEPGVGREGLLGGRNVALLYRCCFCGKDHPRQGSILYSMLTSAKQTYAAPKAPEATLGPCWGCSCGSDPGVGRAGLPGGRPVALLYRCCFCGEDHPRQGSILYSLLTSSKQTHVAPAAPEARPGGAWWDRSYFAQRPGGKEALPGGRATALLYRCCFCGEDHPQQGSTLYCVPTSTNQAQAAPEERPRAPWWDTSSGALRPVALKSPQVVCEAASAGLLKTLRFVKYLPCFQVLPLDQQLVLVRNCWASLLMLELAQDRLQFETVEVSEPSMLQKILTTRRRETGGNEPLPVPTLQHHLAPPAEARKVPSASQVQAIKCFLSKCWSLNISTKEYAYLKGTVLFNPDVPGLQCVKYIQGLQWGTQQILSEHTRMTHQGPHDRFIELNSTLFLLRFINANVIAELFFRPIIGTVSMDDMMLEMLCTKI

BJ [22] = test: cytotoxicity toward BJ-TERT-LT-ST fibroblasts, dose response, cell-based, RAS-independent, luminescence (AID 1935); assay type: functional; settings: Homo sapiens;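 note: BJ fibroblasts immortalized with TERT plus LT and ST oncogenes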
BJ [23] = test: cells; assay type: functional, cell-based; settings: Homo sapiens
BJ [24] = test: cytotoxicity toward BJ-TERT fibroblasts, dose response, cell-based, RAS-independent, luminescence (AID 1933); assay type: functional; settings: Homo sapiens
cells [25] = assay type: functional, cell-based; remark: listed apart in the source
[26] = cytotoxicity toward DRD oncogenic fibroblasts, dose response, cell-based, non-viral oncogenic, luminescence (AID 1934); assay type: functional; settings: Homo sapiens
Paired box protein Pax-8 = Paired box protein Pax-8 (Homo sapiens, UniProt Q06710); test: inhibitors of PAX8-driven TPO luciferase reporter, dose response, RMG-I cells, cherry-pick (AID 687027); assay type: functional, cell-based;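 note: luciferase reporter driven by Pax8 target thyroperoxidase promoter measured by SteadyGlo luminescence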
[27] = molecular target: Peroxisome proliferator-activated receptor gamma/Nuclear receptor coactivator 1 (Homo sapiens, UniProt P37231); assay type: functional;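 note: agonist potency as compounds enhance coactivator SRC-1 recruitment to PPARgamma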
[28] = molecular target: Peroxisome proliferator-activated receptor gamma/Nuclear receptor coactivator 2 (Homo sapiens, UniProt P37231); assay type: functional;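 note: agonist potency for raising coactivator recruitment to the receptor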
Sequence of Peroxisome proliferator-activated receptor gamma/Nuclear receptor coactivator 2 (P37231 whole entry): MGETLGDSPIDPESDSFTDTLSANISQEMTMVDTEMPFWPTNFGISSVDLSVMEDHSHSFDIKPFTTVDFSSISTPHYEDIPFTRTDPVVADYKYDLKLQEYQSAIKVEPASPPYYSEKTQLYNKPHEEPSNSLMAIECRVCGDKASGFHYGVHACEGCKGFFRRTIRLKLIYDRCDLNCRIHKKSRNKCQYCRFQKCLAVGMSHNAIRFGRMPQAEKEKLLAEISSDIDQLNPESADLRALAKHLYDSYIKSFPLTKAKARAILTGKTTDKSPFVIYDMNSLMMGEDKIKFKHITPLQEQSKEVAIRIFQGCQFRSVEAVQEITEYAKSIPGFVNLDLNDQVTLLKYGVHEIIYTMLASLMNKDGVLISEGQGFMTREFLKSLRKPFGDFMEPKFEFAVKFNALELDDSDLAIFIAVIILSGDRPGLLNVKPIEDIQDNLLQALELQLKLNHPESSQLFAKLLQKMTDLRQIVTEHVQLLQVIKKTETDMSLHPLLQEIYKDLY
Sequence of Peroxisome proliferator-activated receptor gamma/Nuclear receptor coactivator 2 (Q15596 whole entry, further chain): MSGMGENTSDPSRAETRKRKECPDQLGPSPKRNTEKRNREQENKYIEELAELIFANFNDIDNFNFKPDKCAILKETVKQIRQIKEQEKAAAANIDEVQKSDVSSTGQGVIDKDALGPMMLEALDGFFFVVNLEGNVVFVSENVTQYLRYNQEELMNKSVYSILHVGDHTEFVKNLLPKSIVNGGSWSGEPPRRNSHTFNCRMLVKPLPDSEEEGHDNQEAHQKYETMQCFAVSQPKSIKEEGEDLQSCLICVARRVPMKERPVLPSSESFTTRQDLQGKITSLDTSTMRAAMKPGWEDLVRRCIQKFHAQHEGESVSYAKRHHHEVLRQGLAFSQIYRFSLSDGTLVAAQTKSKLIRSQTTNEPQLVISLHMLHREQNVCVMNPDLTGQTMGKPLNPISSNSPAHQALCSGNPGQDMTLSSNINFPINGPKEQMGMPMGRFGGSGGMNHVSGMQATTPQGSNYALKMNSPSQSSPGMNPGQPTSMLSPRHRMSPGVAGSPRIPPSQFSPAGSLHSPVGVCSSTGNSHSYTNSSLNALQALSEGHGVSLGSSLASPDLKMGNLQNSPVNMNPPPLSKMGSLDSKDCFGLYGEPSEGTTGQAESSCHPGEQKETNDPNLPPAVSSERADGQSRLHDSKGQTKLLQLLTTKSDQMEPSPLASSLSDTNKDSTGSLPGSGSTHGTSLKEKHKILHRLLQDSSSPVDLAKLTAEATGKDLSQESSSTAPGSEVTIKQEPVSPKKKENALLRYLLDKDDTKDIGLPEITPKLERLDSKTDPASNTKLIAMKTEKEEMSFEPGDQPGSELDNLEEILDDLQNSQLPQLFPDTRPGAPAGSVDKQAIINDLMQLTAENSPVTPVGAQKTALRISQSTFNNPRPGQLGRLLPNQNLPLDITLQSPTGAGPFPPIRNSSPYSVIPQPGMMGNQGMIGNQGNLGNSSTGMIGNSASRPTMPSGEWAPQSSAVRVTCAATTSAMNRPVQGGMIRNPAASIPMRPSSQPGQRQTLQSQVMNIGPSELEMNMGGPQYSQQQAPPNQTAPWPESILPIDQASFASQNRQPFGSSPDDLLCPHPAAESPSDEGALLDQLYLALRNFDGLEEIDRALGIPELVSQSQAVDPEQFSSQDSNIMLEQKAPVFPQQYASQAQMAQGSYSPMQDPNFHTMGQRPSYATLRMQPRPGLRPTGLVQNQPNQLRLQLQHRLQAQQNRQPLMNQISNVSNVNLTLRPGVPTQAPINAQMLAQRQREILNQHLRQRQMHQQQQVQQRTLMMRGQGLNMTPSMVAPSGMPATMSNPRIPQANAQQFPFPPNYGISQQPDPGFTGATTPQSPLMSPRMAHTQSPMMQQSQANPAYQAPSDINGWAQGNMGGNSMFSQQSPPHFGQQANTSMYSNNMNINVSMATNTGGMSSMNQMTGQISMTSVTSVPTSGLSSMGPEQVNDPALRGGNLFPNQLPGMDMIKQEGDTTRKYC

[29] = growth suppression of PTEN-null colon cells, dose response, cell-based, HCT116 PTEN knockout (AID 1047); assay type: functional;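 note: HCT116 colon tumor cells with PTEN knocked out; cells exposed to compound for 60 hours before readout; potency for loss of cell viability measured by luminescence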
[30] = molecular target: T3, Beta-2 adrenergic receptor; test: Dose response for HTS for Beta-2AR agonists via FAP method from Powderset3.; assay type: functional
[31] = molecular target: Peroxisome proliferator-activated receptor gamma/Nuclear receptor coactivator 3 (Homo sapiens, UniProt P37231); assay type: functional;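 note: agonist potency for raising coactivator recruitment to the receptor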
[32] = growth suppression of beta-catenin-knockout colon cells, dose response, cell-based, HCT116, human colon tumor (AID 1045); assay type: functional;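 note: HCT116 colon tumor cells with beta catenin knocked out; cells exposed to compound for 60 hours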

Compound: Cc1cc(Cl)n2c(nc3cc(F)c(F)cc32)c1C#N
Absolute IC50 (XBP1) (X-box-binding protein 1): 10 µM
AC50 [1]: 14.8 µM (active)
EC50 (HEK293 [2]): > 59.6 µM (inactive)
AC50 [3]: 4.49 µM (active)
AC50 [4]: 3.56 µM (active)
AC50 [5]: 6.62 µM (active)
EC50 (HEK293 [6]): > 59.6 µM (inactive)
EC50 [7]: 3.35 µM (active)
EC50 (cells [8]): 54.5 µM (active)
EC50 (BJ [9]): 0.139 µM (inconclusive)
EC50 (cells [10]): > 350 µM (not active)

IC50 [11]: 5.28 µM (active)
EC50 [12]: 0.476 µM (active)
IC50 [13]: 3.98 µM (active)
IC50 [14]: 0.767 µM (active)
IC50 [15]: > 69.5 µM (not active)
AC50 (Cytochrome P450 2C9): inconclusive
IC50 [16]: 0.368 µM (active)
EC50 [17]: 0.261 µM (active)
Compound: CCc1ccc(OCC(=O)Nc2ccc(-c3nc4ccccc4o3)c(O)c2)cc1

IC50 [18]: 53.1 µM (inactive)
Compound: COc1ccc(NC(=O)Cn2nnc(C(=O)Nc3ccc(F)c(Cl)c3)c2N)cc1

Compound: COc1ccc(-n2c(N)c(C(=O)NCc3cccnc3)sc2=S)cc1
IC50 [19]: 35.9 µM (inactive)
IC50 [20]: 35.9 µM (inactive)
IC50 (Steroidogenic factor 1): 5.22 µM (active)

Compound: CCOC(=O)N1CCC(NC(=O)c2ccc3c(c2)N=C(C)c2c(C)ccc(C)c2S3)CC1
IC50 [21]: > 67.5 µM (inactive)
EC50 (BJ [22]): 1.43 µM (active)
EC50 (BJ [23]): 29.3 µM (active)
EC50 (BJ [24]): 1.52 µM (active)
IC50 (cells [25]): > 67.5 µM (inactive)
EC50 [26]: 1.12 µM (active)
AC50 (Paired box protein Pax-8): 3.05 µM (active)

Compound: CC(C)Cc1nc2sc3c(NCc4ccco4)ncnc3c2c2c1COC(C)(C)C2
EC50 [27]: > 79.4 µM (not active)
EC50 [28]: > 79.4 µM (not active)
EC50 [29]: 14.3 µM (active)
EC50 [12]: 0.615 µM (active)
EC50 [30]: 0.0238 µM (active)
EC50 [31]: > 79.4 µM (not active)
EC50 [32]: 14 µM (active)
